This note sets out measurements from patent US20070128217A1 (priority 2003, published 2007).

Test [1] deals with rabbit serum obtained by immunizing a rabbit with the SARS-CoV strain Frankfurt 1. Format: binding. Details: Binding of a rabbit serum to linear peptides / Binding of a rabbit serum to looped peptides / Rabbit serum linear peptides / Rabbit serum looped peptides / Binding of a rabbit serum to linear peptides of protein N of SARS-CoV Urbani (Rabbit serum linear peptides) / Binding of a rabbit serum to looped/cyclic peptides of protein N of SARS-CoV Urbani (Rabbit serum looped peptides): unit not given here.

Test [2] has as its system control sera (pooled serum of ten healthy LUMC hospital workers; commercial negative donor pooled serum from the Dutch bloodbank). Format: binding, human. More on the design: Binding of Control serum LUMC to linear peptides / Binding of Control serum Blood-bank to linear peptides / Binding of Control serum LUMC to looped peptides / Binding of Control Serum Blood-Bank to Looped peptides / Binding of Control serum LUMC to linear peptides of the protein M of SARS-CoV Urbani / Binding of Control serum Blood-bank to linear peptides of the protein M of SARS-CoV Urbani / Binding of Control serum LUMC to looped peptides of the protein M of SARS-CoV Urbani / Binding of Control Serum Blood-Bank to Looped peptides of the protein M of SARS-CoV Urbani: unit not given here.

In test [3] the test system is antibodies in sera from SARS patients (sera 1a, 1b, 2, 6, 37, 62, London, SARS-yellow, SARS-green). Format: binding, human. Details: Binding of serum 6 to linear peptides of protein X1 of SARS-CoV Urbani / Binding of serum 37 to linear peptides of protein X1 of SARS-CoV Urbani / Binding of serum 6 to looped/cyclic peptide (PEPSCAN-ELISA) / Binding of serum 37 to looped/cyclic peptide (PEPSCAN-ELISA) / Binding of serum 37 to looped/cyclic peptides of protein X1 of SARS-CoV Urbani / Binding of serum 6 to linear peptides of protein X2 / Binding of serum 37 to linear peptides of protein X2 / Binding of serum 37 to looped/cyclic peptides of protein X2 of SARS-CoV Urbani / Binding of serum 6 to linear peptides of protein M of SARS-CoV Urbani / Binding of serum 37 to linear peptides of protein M of SARS-CoV Urbani / Binding of serum 6 to looped/cyclic peptides of protein M of SARS-CoV Urbani / Binding of serum 37 to looped/cyclic peptides of protein M of SARS-CoV Urbani / Binding of serum 6 to linear peptides of protein X3 of SARS-CoV Urbani / Binding of serum 37 to linear peptides of protein X3 of SARS-CoV Urbani / Binding of serum 37 to looped/cyclic peptides of protein X3 of SARS-CoV Urbani / Binding of serum 6 to linear peptides of protein X4 of SARS-CoV Urbani / Binding of serum 37 to linear peptides of protein X4 of SARS-CoV Urbani / Binding of serum 37 to looped/cyclic peptides of protein X4 of SARS-CoV Urbani / Binding of serum 6 to linear peptides of protein X5 of SARS-CoV Urbani / Binding of serum 37 to linear peptides of protein X5 of SARS-CoV Urbani / Binding of serum 37 to looped/cyclic peptides of protein X5 of SARS-CoV Urbani / Binding of serum 6 to linear peptides of protein N of SARS-CoV Urbani / Binding of serum 37 to linear peptides of protein N of SARS-CoV Urbani / Binding of serum 6 to linear peptide (PEPSCAN-ELISA) / Binding of serum 1a to looped/cyclic peptides of protein N of SARS-CoV Urbani / Binding of serum 1b to looped/cyclic peptides of protein N of SARS-CoV Urbani / Binding of serum 2 to looped/cyclic peptides of protein N of SARS-CoV Urbani / Binding of serum 6 to looped/cyclic peptides of protein N of SARS-CoV Urbani / Binding of serum 37 to looped/cyclic peptides of protein N of SARS-CoV Urbani / Binding of serum 62 to looped/cyclic peptides of protein N of SARS-CoV Urbani / Binding of serum London to looped/cyclic peptides of protein N of SARS-CoV Urbani / Binding of serum SARS-green to looped/cyclic peptides of protein N of SARS-CoV Urbani: unit not given here.

As to IGFLFLAWIMLLQFA, in test [1], the “Rabbit serum linear peptides” value was found to be 0.2 and the “Rabbit serum looped peptides” value is recorded as 0.3. In test [2], the “Binding of Control Serum Blood-Bank to Looped peptides of the protein M of SARS-CoV Urbani” value is listed as 0.7, the “Binding of Control serum Blood-bank to linear peptides of the protein M of SARS-CoV Urbani” value is reported as 0.7, the “Binding of Control serum LUMC to linear peptides of the protein M of SARS-CoV Urbani” value was 0.7 and the “Binding of Control serum LUMC to looped peptides of the protein M of SARS-CoV Urbani” value is on record as 0.8. Also, in test [3], the “Binding of serum 1a to linear peptides of protein M of SARS-CoV Urbani” value stood at 0.7, the “Binding of serum 1a to looped/cyclic peptides of protein M of SARS-CoV Urbani” value was determined as 0.8, the “Binding of serum 1b to linear peptides of protein M of SARS-CoV Urbani” value was 0.6 and the “Binding of serum 1b to looped/cyclic peptides of protein M of SARS-CoV Urbani” value is given as 0.7. Moreover, in test [3], the “Binding of serum 2 to linear peptides of protein M of SARS-CoV Urbani” value stood at 0.5, the “Binding of serum 2 to looped/cyclic peptides of protein M of SARS-CoV Urbani” value stood at 0.6, the “Binding of serum 6 to linear peptides of protein M of SARS-CoV Urbani” value is recorded as 0.9 and the “Binding of serum 6 to looped/cyclic peptides of protein M of SARS-CoV Urbani” value turned out to be 0.9. In test [3], the “Binding of serum 37 to linear peptides of protein M of SARS-CoV Urbani” value is 0.4, the “Binding of serum 37 to looped/cyclic peptides of protein M of SARS-CoV Urbani” value is on record as 0.7, the “Binding of serum 62 to linear peptides of protein M of SARS-CoV Urbani” value came to 0.5 and the “Binding of serum 62 to looped/cyclic peptides of protein M of SARS-CoV Urbani” value is 0.8. Also, in test [3], the “Binding of serum London to linear peptides of protein M of SARS-CoV Urbani” value was 0.6, the “Binding of serum London to looped/cyclic peptides of protein M of SARS-CoV Urbani” value was determined as 0.3, the “Binding of serum SARS-green to linear peptides of protein M of SARS-CoV Urbani” value is on record as 0.5 and the “Binding of serum SARS-green to looped/cyclic peptides of protein M of SARS-CoV Urbani” value is given as 0.3. For the same sequence, in test [3], the “Binding of serum SARS-yellow to linear peptides of protein M of SARS-CoV Urbani” value turned out to be 0.2 and the “Binding of serum SARS-yellow to looped/cyclic peptides of protein M of SARS-CoV Urbani” value was found to be 0.5.

Take IIMRCWLCWKCKSKN: in test [1], the “Binding of a rabbit serum to linear peptides” value came out at 0.2 and the “Binding of a rabbit serum to looped peptides” value came out at 0.7. In test [2], the “Binding of Control Serum Blood-Bank to Looped peptides” value is 0.6, the “Binding of Control serum Blood-bank to linear peptides” value was 0.5, the “Binding of Control serum LUMC to linear peptides” value turned out to be 0.4 and the “Binding of Control serum LUMC to looped peptides” value is given as 0.6. In test [3], the “Binding of serum 1a to looped/cyclic peptide (PEPSCAN-ELISA)” value was 0.5, the “Binding of serum 1b to looped/cyclic peptide (PEPSCAN-ELISA)” value is reported as 0.3, the “Binding of serum 2 to looped/cyclic peptide (PEPSCAN-ELISA)” value is listed as 0.3 and the “Binding of serum 6 to looped/cyclic peptide (PEPSCAN-ELISA)” value was determined as 0.5. Further, in test [3], the “Binding of serum 37 to looped/cyclic peptide (PEPSCAN-ELISA)” value came out at 0.4, the “Binding of serum 62 to looped/cyclic peptide (PEPSCAN-ELISA)” value is given as 0.5, the “Binding of serum London to looped/cyclic peptide (PEPSCAN-ELISA)” value stood at 0.2 and the “Binding of serum SARS-green to looped/cyclic peptide (PEPSCAN-ELISA)” value came to 0.2. Further, in test [3], the “Binding of serum SARS-yellow to looped/cyclic peptide (PEPSCAN-ELISA)” value was 0.3; the “Recognition of the peptide by sera of SARS-CoV infected individuals, and form (linear, looped/cyclic) in which it is recognized” value is “recognized in linear form”.

Regarding IKDLPKEITVATSRT, in test [1], the “Rabbit serum linear peptides” value is reported as 0.3 and the “Rabbit serum looped peptides” value was found to be 0.2. In test [2], the “Binding of Control Serum Blood-Bank to Looped peptides of the protein M of SARS-CoV Urbani” value is 0.5, the “Binding of Control serum Blood-bank to linear peptides of the protein M of SARS-CoV Urbani” value was found to be 0.6, the “Binding of Control serum LUMC to linear peptides of the protein M of SARS-CoV Urbani” value is recorded as 0.4 and the “Binding of Control serum LUMC to looped peptides of the protein M of SARS-CoV Urbani” value turned out to be 0.7. For the same sequence, in test [3], the “Binding of serum 1a to linear peptides of protein M of SARS-CoV Urbani” value amounted to 0.7, the “Binding of serum 1a to looped/cyclic peptides of protein M of SARS-CoV Urbani” value was 0.4, the “Binding of serum 1b to linear peptides of protein M of SARS-CoV Urbani” value was determined as 0.5 and the “Binding of serum 1b to looped/cyclic peptides of protein M of SARS-CoV Urbani” value stood at 0.4. In test [3], the “Binding of serum 2 to linear peptides of protein M of SARS-CoV Urbani” value worked out at 0.6, the “Binding of serum 2 to looped/cyclic peptides of protein M of SARS-CoV Urbani” value is 0.5, the “Binding of serum 6 to linear peptides of protein M of SARS-CoV Urbani” value is recorded as 0.3 and the “Binding of serum 6 to looped/cyclic peptides of protein M of SARS-CoV Urbani” value is given as 0.4. For the same sequence, in test [3], the “Binding of serum 37 to linear peptides of protein M of SARS-CoV Urbani” value is 0.8, the “Binding of serum 37 to looped/cyclic peptides of protein M of SARS-CoV Urbani” value is 0.6, the “Binding of serum 62 to linear peptides of protein M of SARS-CoV Urbani” value came out at 0.8 and the “Binding of serum 62 to looped/cyclic peptides of protein M of SARS-CoV Urbani” value is 0.6. In test [3], the “Binding of serum London to linear peptides of protein M of SARS-CoV Urbani” value is 0.3, the “Binding of serum London to looped/cyclic peptides of protein M of SARS-CoV Urbani” value is 0.2, the “Binding of serum SARS-green to linear peptides of protein M of SARS-CoV Urbani” value came out at 0.2 and the “Binding of serum SARS-green to looped/cyclic peptides of protein M of SARS-CoV Urbani” value stood at 0.3. Besides, in test [3], the “Binding of serum SARS-yellow to linear peptides of protein M of SARS-CoV Urbani” value is 0.0 and the “Binding of serum SARS-yellow to looped/cyclic peptides of protein M of SARS-CoV Urbani” value came to 0.9.

Take IKLVFLWLLWPVTLA: in test [1], the “Rabbit serum linear peptides” value came out at 0.3 and the “Rabbit serum looped peptides” value stood at 0.0. Moreover, in test [2], the “Binding of Control Serum Blood-Bank to Looped peptides of the protein M of SARS-CoV Urbani” value was 0.9, the “Binding of Control serum Blood-bank to linear peptides of the protein M of SARS-CoV Urbani” value is recorded as 0.7, the “Binding of Control serum LUMC to linear peptides of the protein M of SARS-CoV Urbani” value was 0.4 and the “Binding of Control serum LUMC to looped peptides of the protein M of SARS-CoV Urbani” value amounted to 0.7. Further, in test [3], the “Binding of serum 1a to linear peptides of protein M of SARS-CoV Urbani” value was 0.7, the “Binding of serum 1a to looped/cyclic peptides of protein M of SARS-CoV Urbani” value is recorded as 0.7, the “Binding of serum 1b to linear peptides of protein M of SARS-CoV Urbani” value was found to be 0.5 and the “Binding of serum 1b to looped/cyclic peptides of protein M of SARS-CoV Urbani” value came to 0.8. Besides, in test [3], the “Binding of serum 2 to linear peptides of protein M of SARS-CoV Urbani” value is reported as 0.7, the “Binding of serum 2 to looped/cyclic peptides of protein M of SARS-CoV Urbani” value turned out to be 0.6, the “Binding of serum 6 to linear peptides of protein M of SARS-CoV Urbani” value came out at 0.5 and the “Binding of serum 6 to looped/cyclic peptides of protein M of SARS-CoV Urbani” value came out at 0.9. In test [3], the “Binding of serum 37 to linear peptides of protein M of SARS-CoV Urbani” value was found to be 0.6, the “Binding of serum 37 to looped/cyclic peptides of protein M of SARS-CoV Urbani” value amounted to 0.8, the “Binding of serum 62 to linear peptides of protein M of SARS-CoV Urbani” value came out at 0.7 and the “Binding of serum 62 to looped/cyclic peptides of protein M of SARS-CoV Urbani” value amounted to 0.8. In test [3], the “Binding of serum London to linear peptides of protein M of SARS-CoV Urbani” value was found to be 0.6, the “Binding of serum London to looped/cyclic peptides of protein M of SARS-CoV Urbani” value was found to be 0.3, the “Binding of serum SARS-green to linear peptides of protein M of SARS-CoV Urbani” value was 0.3 and the “Binding of serum SARS-green to looped/cyclic peptides of protein M of SARS-CoV Urbani” value was 0.3. Besides, in test [3], the “Binding of serum SARS-yellow to linear peptides of protein M of SARS-CoV Urbani” value is on record as 0.1 and the “Binding of serum SARS-yellow to looped/cyclic peptides of protein M of SARS-CoV Urbani” value was found to be 0.5.
